Patent US20200000752A1, “Method for Treating Epilepsy” (Vanderbilt University, priority 2016, published 2020)

Key:
[1] = Brain and plasma concentration of celastrol in mice (IP, oral gavage)
From the text: For chronic dosing, samples were collected 2 hrs after drug administration.
Blood samples for drug bioanalysis will be collected in EDTA plasma tubes, immediately centrifuged, and the plasma fraction frozen at −80 C until analysis. Whole brains will also be frozen until analysis. […] Study samples, standards, and quality control samples will be precipitated with acetonitrile containing an internal standard, centrifuging the samples, and then injecting the supernatant onto a reverse phase LC/MS/MS system. Assay performance will be checked with retention time, peak shape, and quality control samples. The free drug concentration from animal studies will be calculated by multiplying the in vitro plasma free fraction (funbound) by the determined plasma concentrations. […] GABAA receptor subunits, AKT and neuronal survival signaling molecules, heat shock protein and synaptic scaffold proteins will be the focus.

Gabrg2^+/Q390X mice [2] = test: EEG spike-wave discharges (SWD) in Gabrg2+/Q390X mice after 14 days dosing; assay type: in vivo, mouse
Experimental: (FIG. 4A). […] . (FIG. 4B). In 4B, the mice were recorded for 24 hrs for EEGs and a uniform 5-min of EEGs was scored for each hour. The SWDs with duration >1 sec were quantified.

Gabrg2^+/Q390X mice [3] = test: Early intermittent dosing, survival of Gabrg2+/Q390X mice; assay type: in vivo, mouse; conditions: 0.3 mg/kg intermittent from postnatal day 7; untreated ~25% mortality
From the text: (FIG. 5B, C). Gabrg2^+/Q390X mice in C57/BL/6J background had ˜25% of mortality (B) while Scn1a^+/− mice in C57/BL/6J background had ˜60% of mortality by week 7 (C). […] The Gabrg2^+/Q390X mice were in C57/BL/6J background while Scn1a^+/− sires were from mixed S129/C57BL/6J and the dams were congenic C57/BL/6J. For each mouse model, heterozygous pups of both male and female from 6-8 litters were included.

[4] = system: cultured cortical neurons from the wild-type mouse brains; test: Neuronal viability, trypan blue exclusion; assay type: cell-based; conditions: 0-8 μm for 4 hours, at the therapeutic levels
Experimental: The neuronal viability was determined with membrane integrity by trypan blue exclusion method^12. The mean survival was determined by counting eight randomly selected, non-overlapping fields with each containing approximately 10-20 neurons (viable+nonviable) (n=4 different cultures). GABAAR expression was determined by the high-throughput flow cytometry. HEK 293T cells were transfected with human α1, β2 and γ2 subunit cDNAs at 1:1:1 ratio for 48 hours. The α1 subunit was chosen as readout. The anti-α1 antibody was directly conjugated with Alexa 488 (data are mean±SEM, n=4). The healthy population was gated.

Scn1a^+/− mouse = test: Chronic intermittent dosing toxicity in an Scn1a+/- mouse; assay type: in vivo
From the text: An eight-month old male Scn1a^+/− mouse with chronic intermittent dosing was investigated for cortex and hippocampus neuronal survival, which was normal (FIG. 8A).

[5] = system: GABAA receptor α1 and γ2 subunits; test: Surface and total GABAA receptor subunit expression in Gabrg2+/Q390X mice; assay type: in vivo, mouse
Experimental: As shown in FIG. 14A upper panel, the surface proteins (FIG. 14A) from the live mouse brain slices were biotinylated and analyzed by SDS-PAGE and immunoblotted with anti-γ2 or anti-al subunit antibody. In the lower panel, the protein from total lysates of cortex was analyzed by SDS-PAGE and immunoblotted with anti-γ2 subunit antibody. LC is the loading control GAPDH in the blots. FIG. 14B charts the protein IDVs of surface wild-type γ2 or al subunits (upper panel) or total level wild-type γ2 subunits (lower panel) were normalized to its loading control and then to that in untreated wild-type mice which was arbitrarily taken as 1.

Scn1a^+/− mice [6] = test: PTZ-induced seizures in Scn1a+/- mice after 14 days treatment; assay type: in vivo, mouse; conditions: 0.3 mg/kg IP 14 days; PTZ 50 mg/kg IP
AKT, active caspase 3 = test: P-AKT immunoblot and active caspase 3 staining in cells and Gabrg2+/Q390X mice; design: species or system mouse
Experimental: Total lysates from HEK 293T cells expressing the wild-type (wt) or the mutant α1β2γ2(Q390X) (mut) receptors (FIG. 17A) or from Gabrg2^+/Q390X mouse cortex (17B) were analyzed by SDS-PAGE. The membranes were immunoblotted with the phosphorylated AKT (P-AKT). FIG. 17C. Paraffin-embedded brain sections from 1 year old wild-type (wt) and heterozygous Gabrg2^+/Q390X (het) mice were stained with the active form of caspase 3 (green) and NeuN (red). The cell nuclei were stained with TO-PRO-3 (blue).

Scn1a^+/− mice [7] = test: Survival and seizure activity in Scn1a+/- mice after 1 month off celastrol; assay type: in vivo, mouse; conditions: 0.3 mg/kg 14 d on and 1 month off
From the text: Intermittent dosing will greatly increase compliance and reduce side effects for long-term treatment. However, it is necessary to determine the duration the efficacy lasts after certain doses and the duration it takes to recover to baseline.

PI3K/AKT pathway = PI3K/AKT pathway activation in vitro; assay type: cell-based
seizure activity = test: Oral gavage for 2 weeks, seizure threshold and seizure activity; assay type: in vivo, mice; conditions: oral gavage 3 mg/kg for 2 weeks
[8] = system: cytochrome P450 enzymes (CYPs); conditions: cited from earlier work
AppSWE/PsenIdE9 mice = conditions: mouse, in vivo; cited from earlier work
[9] = Caco-2 intrinsic permeability; conditions: human
Caco2 cells = test: Caco-2 intrinsic permeability
[10] = In vivo exposure (IV and PO) in rat
[11] = 3 litters with 6-8 grossly normal pups

In the case of CC1=C(O)C(=O)C=C2C1=CC=C1[C@@]2(C)CC[C@@]2(C)[C@@H]3C[C@](C)(C(=O)O)CC[C@]3(C)CC[C@]12C [Celastrol, 3-Hydroxy-9β,13α-dimethyl-2-oxo-24,25,26-trinoroleana-1(10),3,5,7-tetraen-29-oic acid], the “celastrol concentration in the mouse brain” value ([1]; level with good efficacy) is reported as 120-150 nm, the Kp at 24 h ([1]; mouse, brain, intraperitoneal, 0.3 mg/kg) is reported as > 1.2 and the concentration at 2 h ([1]; mouse, brain, po, 3 mg/kg) is reported as 121 nM. For the same compound, the efficacy and tolerability (Gabrg2^+/Q390X mice [2]; 0.3 mg/kg IP daily for 14 days) was “good efficacy and tolerability”, the seizures (Gabrg2^+/Q390X mice [2]; 1 and 5 mg/kg via oral gavage) was “seizure reduction” and the “frequency of SWDs” value (Gabrg2^+/Q390X mice [2]; IP or oral gavage daily for 14 days, SWDs >1 sec, 24 hrs EEG) was “dose dependently reduced”. For the same compound, the survival (Gabrg2^+/Q390X mice [3]) was “completely rescued the survival”, the cell viability [4] was “no reduced cell viability” and the fertility (Scn1a^+/− mouse; [11]) was “normal fertility”. For the same compound, the teratogenicity (Scn1a^+/− mouse; [11]) was “no teratogenicity”, the “HE staining of liver, kidney and heart” value (Scn1a^+/− mouse; chronic intermittent dosing) was “Normal cell numbers, morphology and viability” and the “HE staining of lung, spleen, intestine, testis, leg muscle and skin” value (Scn1a^+/− mouse; chronic intermittent dosing) was “no abnormalities were identified”. For the same compound, the blood counts (Scn1a^+/− mouse; chronic intermittent dosing) was “normal blood counts”, the “organ function, total protein and metabolics” value (Scn1a^+/− mouse; chronic intermittent dosing) was “normal function of liver, heart and kidney and normal total protein and metabolics” and the “cortex and hippocampus neuronal survival” value (Scn1a^+/− mouse; eight-month old male, chronic intermittent dosing) was “normal”. The “surface and total α1 and γ2 subunits” value ([5]; 0.3 mg/kg IP for 14 days, n=4 mice) was “increase of both the surface and total α1 and γ2 subunits were greater in the mutant mice than in the wildtype”, the “increase of surface γ2 subunits compared with mutant mice treated with vehicle” value ([5]; 0.3 mg/kg, ip) was 40-50% and the “seizure threshold and seizures after PTZ” value (Scn1a^+/− mice [6]) was “increased seizure threshold and decreased seizures”. The “active caspase 3” value (AKT, active caspase 3; 0.3 mg/kg IP 2 weeks) was “Reducing Active Caspase 3”, the “AKT (P-AKT)” value (AKT, active caspase 3; 0.3 mg/kg IP 2 weeks in mice, HEK 293T cells) was “Activating AKT” and the “seizure duration after PTZ” value (Scn1a^+/− mice [7]) was “shortened seizure duration”. For the same compound, the “seizure onset after PTZ” value (Scn1a^+/− mice [7]) was “delayed seizure onset”, the “seizure severity after PTZ” value (Scn1a^+/− mice [7]) was “reduced seizure severity” and the survival (Scn1a^+/− mice [7]; vs untreated littermates) was “increased survival”. For the same compound, the PI3K/AKT pathway (PI3K/AKT pathway) was “activate PI3K/AKT pathway”, the “seizure threshold and seizure activity” value (seizure activity) was “increasing seizure threshold and reducing seizure activity” and the “CYP inhibition as reported in the literature” value [8] was “inhibits several CYP enzymes”. The memory (AppSWE/PsenIdE9 mice) was “improve memory”, the Papp at 2 h, 2 microM [9] was ≥ 1 ×10⁻⁶ cm/s and the “membrane permeability in Caco2 assay, in words” value (Caco2 cells) was “high membrane permeability”. The half-life [10] was 10 h and the bioavailability ([10]; po) was 7.8%.
